Measurements as given in patent US20210338761A1, “COMPOSITION FOR PREVENTING, AMELIORATING, OR TREATING SLEEP DISTURBANCE COMPRISING EXTRACT OF FRAXINUS SP. PLANT AS EFFECTIVE COMPONENT” (KOREA INSTITUTE OF ORIENTAL MEDICINE, priority 2018, published 2021).

Columns and labels:
Type in all cases: in vivo, C57BL/6 mouse
Conditions in all cases: 15 mg/kg orally for 14 days, foot pad electric shock and restraint stress, cerebral cortex obtained on Day 17
neuropeptide Y mRNA = assay: mRNA expression level of neuropeptide Y in cerebral cortex, stress-induced sleep disturbance model (real-time PCR)
Description: (§1) 100 mg/kg extract of Fraxinus rhynchophylla and 15 mg/kg doxepin (Sigma-Aldrich, St. Louis, Mo., USA) were dissolved respectively in PBS to the designated concentration. After aliquoting them according to the required administration amount, it was orally administered in an amount of 0.1 ml for each, one hour before applying stress. To the normal and stress control, PBS was orally administered in an amount of 0.1 ml for each.
(§2) Seven-week old male C57BL/6 mouse with bodyweight of 20 to 22 g was obtained from DBL Co., Ltd. (Eumseong-Gun, Chungcheong-Bukdo, Korea). […]
(§3) Expression pattern of the gene in cerebral cortex, which has been removed from each test animal upon the completion of the test, was determined by real-time PCR. The cerebral cortex tissues of a mouse were treated with RNAzolB (Tel-Test) to extract RNA, and then analyzed by cDNA and real-time PCR instrument using One-step SYBR Green PCR kit (AB science). […] Real time quantitative PCR was carried out by using Applied Biosystems 7500 Real-Time PCR system (Applied Biosystems, USA).
Thereafter, foot pad electric shock and restrain were applied to the mouse and then cerebral cortex was collected by autopsy of the mouse to obtain RNA. cDNA was then prepared and mRNA expression of neuropeptide Y was analyzed by using real-time gene analyzer.

[1] = system: GAD65 (glutamic acid decarboxylase 65) mRNA; assay: mRNA expression level of GAD65 in cerebral cortex, stress-induced sleep disturbance model (real-time PCR)
Description: as §1, §2, §3
(§4) Thereafter, foot pad electric shock and restrain were applied to the mouse and then cerebral cortex was collected by autopsy of the mouse to obtain RNA. cDNA was then prepared and mRNA expression level of GAD65 and GAD67 was analyzed by using real-time gene analyzer.

[2] = system: GAD67 (glutamic acid decarboxylase 67) mRNA; assay: mRNA expression level of GAD67 in cerebral cortex, stress-induced sleep disturbance model (real-time PCR)
Description: as §1, §2, §3, §4

CN(C)CCC=C1c2ccccc2COc2ccccc21 [doxepin]
mRNA expression level of neuropeptide Y in cerebral cortex compared to the control (neuropeptide Y mRNA): increased in statistically significant sense
mRNA expression level of neuropeptide Y in cerebral cortex compared to the control (neuropeptide Y mRNA; listed as positive control): higher expression in significant sense
mRNA expression level of GAD65 in cerebral cortex compared to the control [1]: tend to show higher expression
mRNA expression level of GAD67 in cerebral cortex compared to the control [2]: tend to show higher expression
